Patent US10975087B2, “Solid forms of tetrahydropyranyl amino-pyrrolopyrimidinone compounds” (ArQule, Inc., priority 2018, dated 2021)
Values joined by “and” are separate entries in the source; they are usually repeats but may differ in a detail not shown here. Equal entries are not always repeated. “Also recorded” adds a separate entry of the source.

Assays:
Type in all cases: physicochemical
[1] = Accelerated storage conditions (75% RH/40° C. for 72 hours), XRPD
[2] = Salt disproportionation studies (slurry in deionized water); conditions: for XRPD after salt disproportionation study, 48 hours / measured pH after slurrying in water: 48 hours
Protocol: Samples of salts described herein were prepared for disproportionation studies. Approximately 15 mg of the salt material was suspended in 4 mL of deionized water at ambient temperature (ca. 22° C.). The slurry of the salt was shaken at ambient temperature and analyzed after: 1 h, 24 h, and 48 h. Each sample was filtered using a centrifuge filter. The solid was analyzed by XRPD. pH measurements were performed for the solution (three pH measurements were carried out for each sample and the average pH was calculated).

[3] = 7 day stability testing, open vials at 40° C./75% RH, ambient and 80° C.; conditions: for XRPD analysis after storage for 1 week: 80° C., and ambient temperature; for Purity after 1 week (%) / area % purity and form changes after 1 week: open vials; for T = 0 purity (%): T = 0, before storage; for area % purity and form changes after 1 week: ambient, 40° C./75% RH and 80° C.
[4] = Dynamic vapor sorption (DVS); conditions: for Post-DVS XRPD analysis (form): after exposure to elevated humidity; for moisture uptake by DVS: at 90% RH
Protocol: Approximately 10-20 mg of sample was placed into a mesh vapor sorption balance pan and loaded into a DVS-1 dynamic vapor sorption balance by Surface Measurement Systems. […] After completion of the sorption cycle, the sample was dried using the same procedure to 0% RH and then a second sorption cycle back to 40% RH. Two cycles were performed. The weight change during the sorption/desorption cycles were plotted, allowing for the hygroscopic nature of the sample to be determined. XRPD analysis may be then carried out on any solid retained.

[5] = Hydration studies in water/acetone mixtures; conditions: for Hydration study result (solid by XRPD): 5 days
Protocol: Hydration experiments were performed at 25° C. and 50° C. in water/acetone mixtures with the following water content (volume %): 2%, 5%, and 20%. The samples were prepared by adding 250 μL of the water/acetone mixture to 15 mg of the salt sample. The samples were stirred at 25° C. or at 50° C. After 2 days, the samples were inspected for the presence of solid. If solid was not observed, additional salt material was added to the dissolved samples. Samples were stirred for an additional 3 days. After 5 days, samples were filtered and the solid obtained was analyzed by XRPD.

[6] = Karl Fischer coulometric titration (KF) water content
Protocol: Approximately 10-30 mg of solid material was accurately weighed into a vial. The solid was then manually introduced into the titration cell of a Mettler Toledo C30 Compact Titrator. The vial was back-weighed after the addition of the solid and the weight of the added solid entered on the instrument. Titration was initiated once the sample had fully dissolved in the cell. The water content was calculated automatically by the instrument as a percentage and the data printed.

[7] = Thermodynamic solubility pH measurements; conditions: for Solubility (mg/mL): Input Solvent pH 6.5, 25° C.; for XRPD after thermodynamic solubility studies: respective buffer
Protocol: After 2 hours at 25° C., the pH of each slurry was measured and the pH was adjusted, where required. After 24 hours at 25° C., the pH of each slurry was measured and the pH was adjusted, where required. After 48 hours at 25° C., the slurries were separated by centrifugation. The solids were analyzed by XRPD, while the pH of the separated liquors were also measured.

[8] = Variable temperature X-ray powder diffraction (VT-XRPD)
Protocol: VT-XRPD analysis was carried out on a Philips X'Pert Pro Multipurpose diffractometer. The samples were scanned between 4 and 35.99° 2θ using Cu K radiation (α1 λ=1.54060 Å; α2=1.54443 Å; β=1.39225 Å; α1:α2 ratio=0.5) running in Bragg-Brentano geometry (step size 0.008° 2θ) using 40 kV/40 mA generator settings. Measurements were performed at each step of the temperature profile: 30° C. initial scan, 150° C., 200° C., 210° C., 230° C., and 30° C., final scan.

[9] = Input Solvent Water, 25° C., 48 hours
[10] = Input Solvent pH 1, 25° C., 48 hours
[11] = Input Solvent pH 4.5, 25° C., 48 hours

| Compound | XRPD after salt disproportionation study, 24 hours [2] | XRPD after salt disproportionation study, 48 hours [2] | XRPD analysis after storage for 1 week ([3]; 40° C./75% RH) | Purity after 1 week (%) ([3]; 40° C./75% RH) | Purity after 1 week (%) ([3]; 80° C.) | Purity after 1 week (%) ([3]; Ambient) | T = 0 purity (%) [3] [%] | area % purity and form changes after 1 week [3] | Post-DVS XRPD analysis (form) [4] | KF moisture (water) content [6] | pH - 2 Hours at 25° C. ([7]; Input Solvent Water) | pH - 24 Hours at 25° C. ([7]; Input Solvent Water) | pH - 48 Hours at 25° C. ([7]; Input Solvent Water) | Solubility [7, 9] [µg/mL] | pH - 2 Hours at 25° C. ([7]; Input Solvent pH 1) | pH - 24 Hours at 25° C. ([7]; Input Solvent pH 1) | pH - 48 Hours at 25° C. ([7]; Input Solvent pH 1) | Solubility [7, 10] [µg/mL] | pH - 2 Hours at 25° C. ([7]; Input Solvent pH 4.5) | moisture uptake by DVS [4] | also measured |
| --- | --- | --- | --- | --- | --- | --- | --- | --- | --- | --- | --- | --- | --- | --- | --- | --- | --- | --- | --- | --- | --- |
| O=C(c1ccc(Oc2ccccc2)cc1Cl)c1c[nH]c2ncnc(N[C@@H]3CC[C@@H](CO)OC3)c12.O=S(=O)(O)c1ccccc1 [besylate Form 1] | gel-like, amorphous solid | staying partially crystalline; also recorded: no change from the input material | no change in form from the input material | 97.8 | 97.4 | 97.4 | 97.4 | no decrease in area % purity or form changes | no change in form from the input material | 0.24% and 2.0% | 1.96 | 1.68 | 1.84 | 200 | 0.19 | 0.37 | 1.07 | 200 | 4.20 |  | stability under accelerated storage conditions (XRPD) [1]: stable; solid obtained in hydration study (XRPD) ([5]; 2% and 5% water in acetone, 25° C.): recovered; Hydration study result (solid by XRPD) ([5]; 2% water in water/acetone, 25° C., Form = form of the same salt): Form 1; Hydration study result (solid by XRPD) ([5]; 2% water in water/acetone, 50° C., Form = form of the same salt): Form 1; Hydration study result (solid by XRPD) ([5]; 5% water in water/acetone, 25° C., Form = form of the same salt): Gum; Hydration study result (solid by XRPD) ([5]; 5% water in water/acetone, 50° C., Form = form of the same salt): Gum; Hydration study result (solid by XRPD) ([5]; 20% water in water/acetone, 25° C.): Gum; Hydration study result (solid by XRPD) ([5]; 20% water in water/acetone, 50° C.): Gum; solid obtained in hydration study ([5]; the other experiments (remaining water contents/temperatures)): gum; pH - 24 Hours at 25° C. ([7]; Input Solvent pH 4.5): 3.80; pH - 48 Hours at 25° C. ([7]; Input Solvent pH 4.5): 3.82; Solubility [7, 11]: <100 µg/mL; pH - 2 Hours at 25° C. ([7]; Input Solvent pH 6.5): 3.31; pH - 24 Hours at 25° C. ([7]; Input Solvent pH 6.5): 2.51; pH - 48 Hours at 25° C. ([7]; Input Solvent pH 6.5): 3.26; Solubility (mg/mL) ([7]; 48 hours): <LOD; XRPD after thermodynamic solubility studies ([7]; 25° C., 48 hours): poorly crystalline; also recorded: no change from the input material |
| Br.O=C(c1ccc(Oc2ccccc2)cc1Cl)c1c[nH]c2ncnc(N[C@@H]3CC[C@@H](CO)OC3)c12 [hydrobromide Form 2] | partially crystalline | staying hydrobromide Form 2 | no change in form from the input material |  |  |  |  |  | no change in form from the input material | 1.97% | 1.86 | 1.34 | 1.86 | 500 | 0.27 | 0.40 | 0.78 | <100 | 3.97 | ca. 2.4% | measured pH after slurrying in water [2]: 1.86; pH - 24 Hours at 25° C. ([7]; Input Solvent pH 4.5): 3.62; pH - 48 Hours at 25° C. ([7]; Input Solvent pH 4.5): 3.84; Solubility [7, 11]: <100 µg/mL; pH - 2 Hours at 25° C. ([7]; Input Solvent pH 6.5): 3.53; pH - 24 Hours at 25° C. ([7]; Input Solvent pH 6.5): 2.61; pH - 48 Hours at 25° C. ([7]; Input Solvent pH 6.5): 3.44; Solubility (mg/mL) ([7]; 48 hours): <LOD; XRPD after thermodynamic solubility studies, pH 1 ([7]; pH 1, 25° C., 48 hours): hydrobromide Form 1 and 2 are observed; XRPD after thermodynamic solubility studies, water and pH 4.5 and 6.5 ([7]; water and pH 4.5 and 6.5, 25° C., 48 hours): poorly crystalline |
| O=C(c1ccc(Oc2ccccc2)cc1Cl)c1c[nH]c2ncnc(N[C@@H]3CC[C@@H](CO)OC3)c12 [Form 10, (2-chloro-4-phenoxyphenyl)(4-(((3R,6S)-6-(hydroxymethyl)tetrahydro-2H-pyran-3-yl)amino)-7H-pyrrolo[2,3-d]pyrimidin-5-yl)methanone] |  |  |  |  |  |  |  |  | no change in form, but reduction in crystallinity | 1.48% |  |  |  |  |  |  |  |  |  | 0.94% | hygroscopic nature by DVS [4]: slightly hygroscopic; KF water content in equivalents [6]: 0.4 equivalents; VT-XRPD form upon heating to 150° C. ([8]; 150° C.): persisted upon heating to 150 °C with poor crystallinity; VT-XRPD form at 230° C. ([8]; 230° C.): became amorphous; Identity ([8]; VT-XRPD Run 1, Temp 30° C.): Form 10; Identity ([8]; VT-XRPD Run 2, Temp 150° C.): Form 10; Identity ([8]; VT-XRPD Run 3, Temp 200° C., two forms printed in two cells): Form 10; also recorded: Form 12; Identity ([8]; VT-XRPD Run 4, Temp 210° C.): Form 12; Identity ([8]; VT-XRPD Run 5, Temp 230° C.): Amorphous; Identity ([8]; VT-XRPD Run 6, Temp 30° C.): Amorphous; VT-XRPD form between ca. 200° C. and ca. 210° C. ([8]; ca. 200° C. to ca. 210° C.): converted to Form 12; VT-XRPD form upon cooling to 30° C. ([8]; cooling to 30° C.): remained amorphous |
| O=C(c1ccc(Oc2ccccc2)cc1Cl)c1c[nH]c2ncnc(N[C@@H]3CC[C@@H](CO)OC3)c12.O=S(=O)(O)CCS(=O)(=O)O [edisylate Form 1] |  | no change from the input material | no change in form from the input material | 98.1 | 97.5 | 97.9 | 97.9 | no decrease in area % purity or form changes | no change in form from the input material | 0.94% |  |  |  |  |  |  |  |  |  | ca. 4.6% | measured pH after slurrying in water [2]: 2.32; XRPD after thermodynamic solubility studies ([7]; 25° C., 48 hours): no change from the input material |
